According to patent publication US8518979B2, “Alpha-halo- and alpha-alkyl-cyclopropylcarboxy compounds and uses thereof” (Yissum Research Development Company of the Hebrew …, priority 2007, dated 2013):
Where “and” joins values, the source holds several entries; their conditions need not be identical. Equal entries are not always repeated. Where two headings read alike, the source gives them in different places.

Legend:
neuropathic pain = settings: spinal nerve ligated rat models; cited from earlier work
[1] = test system: metrazole induced clonic seizures; settings: cited from earlier work; for protective index (TD50/ED50): comparison compounds, seizure model not stated
minimal neurotoxicity [2] = settings: cited from earlier work
[3] = test system: maximal electroshock induced seizures (tonic hind limb extension); settings: cited from earlier work
[4] = test system: maximal electroshock induced seizures; settings: mice models injected intraperitoneally; cited from earlier work
teratogenicity = test: Mouse model for VPA-induced teratogenicity; settings: unpublished results
[5] = test system: maximal electroshock induced seizures (tonic hind limb extension); test: Maximal electroshock seizure test (MES) in rats; type: in vivo; settings: rat p.o, 50 mg/kg
minimal neurotoxicity [6] = test: Neurotoxicity (gait and stance assay, TD50) in rats; type: in vivo, rat; settings: for Toxicity, fraction of rats: rat p.o, 50 mg/kg
Method: (§1) Neurotoxicity assays are design to assess the effect of putative neurotoxicants on the normal activity of the nervous system, which can adversely disrupt or cause neuronal death, and damage other parts of the nervous system. The median neurological toxic dose (TD50) is used for quantization of neurotoxicity.
The neurotixicity studies were conducted according to the protocol described in White, H. S., et al., in “General principles. Discovery and preclinical development of antiepileptic drugs”, 5th edition, Levy R H, Mattson R H, Meldrum B S, Perucca E. (editors); Antiepileptic drugs; Lippincott-Raven; Philadelphia: 2002. pp. 36-48.
Neurotoxicity of the α-halo-2,2,3,3-tetramethylcyclopropanecarboxy compounds of the present embodiments was assessed in rats treated therewith by oral administration and observed in the “gait and stance” assay, which assesses minimal neurotoxicity. The neurotoxicity studies were conducted according to the protocol described in White H S. et al., General principles-Discovery and preclinical development of antiepileptic drugs, in: Antiepileptic Drugs, 5th edition, R H Wilkins, Philadelphia 2002, pp. 36-48.

[7] = test system: metrazole induced clonic seizures; test: Subcutaneous metrazol seizure threshold test (scMet) in rats; settings: for ED50: Rattus norvegicus; for ScMet, fraction of rats: rat p.o, 50 mg/kg; for Fraction of rats which responded to the treatment: scMet rat model
[8] = test system: hippocampal kindled seizures; test: Hippocampal kindling assay in rats; type: in vivo; settings: Rattus norvegicus
Method: In a third model, the hippocampal kindling assay was used to identify new drug candidates effective for the treatment of difficult-to-control seizure types, focal seizures and complex partial seizures, as well as compounds that may be effective as mood stabilizer for treating bipolar disorder, and was conducted according to the protocol described therein.
Briefly, this test was conducted by using a bipolar stimulating electrode which was implanted in the hippocampus of rats, and the rats were kindled according to a described method. One week after implantation of the electrodes, the rats were stimulated with supra-threshold trains of 200 μA and 50 Hz for 10 seconds every 30 minutes for 6 hours on alternate days until the animals were fully kindled. […] The behavioral seizures were scored according to the following criteria (“seizure score”): stage 1—mouth and facial clonus; stage 2—stage 1 plus head nodding; stage 3—stage 2 plus forelimb clonus; stage 4—stage 3 plus rearing; and stage 5—stage 4 plus repeated rearing and falling.

6 Hz (32 mA) seizures = test: Psychomotor seizure (6 Hz, 32 mA) assay in mice; type: in vivo; settings: Mus musculus
6 Hz (44 mA) seizures = test: Psychomotor seizure (6 Hz, 44 mA) assay in mice; type: in vivo; settings: Mus musculus
motor impairment = test: Toxicity observed in mice (6 Hz 44 mA test line of Table 3); type: in vivo
From the text: as §1

[9] = rat scMet models, literature comparison

In the case of `CNC(=O)C1C(C)(C)C1(C)C` [Compound IV, N-methyl-2,2,3,3-tetramethylcyclopropanecarboxamide], the “potency as therapeutic for neuropathic pain” value (neuropathic pain) is given as “equipotent to GABApentin”, the “protective index (TD50/ED50)” value [1] is given as 2 and the neurotoxicity (minimal neurotoxicity [2]; rat, in vivo) is given as “non-neurotoxic”.
In the case of `CC1(C)C(C(=O)Nc2nnc(S(N)(=O)=O)s2)C1(C)C` [Compound VII, N-(1,3,4-thiadiazole-2-sulfonamide)-2,2,3,3-tetramethylcyclopropanecarboxamide], the MES-ED50 ([3]; orally treated rat models) is given as 9.2 mg/kg, the MES-ED50 [4] is given as 17 mg/kg and the neurotoxicity (minimal neurotoxicity [2]; at 500 mg/kg doses) is given as “none-neurotoxic”. The teratogenicity (teratogenicity) was “teratogenic”.
In the case of `CONC(=O)C1C(C)(C)C1(C)C` [Compound VI, N-methoxy-2,2,3,3-tetramethylcyclopropanecarboxamide], the ED50 ([3]; MES tests, rats injected intraperitoneally) is listed as 57 mg/kg and the ED50 ([1]; scMet tests, rats injected intraperitoneally) is listed as 9.8 mg/kg.
For `CC1(C)C(C(=O)NC(N)=O)C1(C)C` [TMC-Urea, 2,2,3,3-tetramethylcyclopropanecarbonyl urea], the “protective index, TD50-to-ED50 ratio” value ([3]; maximal electroshock (MES) tests) is given as 18.5, the “protective index (TD50/ED50)” value [1] is given as 18.5 and the ED50 [1, 9] is given as 92 mg/kg.
In the case of `CC1(C)C(C(=O)NCC(N)=O)C1(C)C` [N-2,2,3,3-tetramethylcyclopropylcarbonyl-glycinamide], the “protective index (TD50/ED50)” value [1] is given as “higher than 6.1”, the ED50 [1, 9] is given as “greater than 250 mg/kg” and the TD50 (minimal neurotoxicity [2]; oral administration to rats, literature comparison) is given as “above 500 mg/kg”.
With `CC1(C)C(C)(C)C1(C)C(N)=O` [Compound 4, 1,2,2,3,3-pentamethylcyclopropanecarboxamide] the “MES, fraction of rats” value ([5]; 0.25 hours after dosing) was 0/4, the “MES, fraction of rats” value ([5]; 0.5 hours after dosing) was 0/4 and the “MES, fraction of rats” value ([5]; 1.0 hours after dosing) was 0/4. The “MES, fraction of rats” value ([5]; 2.0 hours after dosing) was 0/4, the “MES, fraction of rats” value ([5]; 4.0 hours after dosing) was 0/4 and the “Toxicity, fraction of rats” value (minimal neurotoxicity [6]; 0.25 hours after dosing) was 0/4. The “Toxicity, fraction of rats” value (minimal neurotoxicity [6]; 0.5 hours after dosing) was 0/4, the “Toxicity, fraction of rats” value (minimal neurotoxicity [6]; 1.0 hours after dosing) was 0/4 and the “Toxicity, fraction of rats” value (minimal neurotoxicity [6]; 2.0 hours after dosing) was 0/4. The “Toxicity, fraction of rats” value (minimal neurotoxicity [6]; 4.0 hours after dosing) was 0/4, the ED50 ([7]; sc, read-out: ED50 (not determined quantitatively, estimated)) was < 50 mg/kg and the “ScMet, fraction of rats” value ([7]; 0.25 hours after dosing) was 0/4. For the same molecule, the “ScMet, fraction of rats” value ([7]; 0.5 hours after dosing) was 0/4, the “ScMet, fraction of rats” value ([7]; 1.0 hours after dosing) was 1/4 and the “ScMet, fraction of rats” value ([7]; 2.0 hours after dosing) was 1/4. For the same molecule, the “ScMet, fraction of rats” value ([7]; 4.0 hours after dosing) was 0/4.
With `CC1(C)C(C)(C)C1(F)C(N)=O` [Compound 1, α-fluoro-2,2,3,3-tetramethylcyclopropanecarboxamide] the ED50 [8] was 29.5 mg/kg and 180 µmol/kg, the ED50 (6 Hz (32 mA) seizures) was < 50 mg/kg and < 310 µmol/kg and the ED50 (6 Hz (44 mA) seizures) was ~50 mg/kg and ~310 µmol/kg. For the same molecule, the “Toxicity (TD50)” value (minimal neurotoxicity [6]; rats, oral administration) was 117 mg/kg, the Toxicity (motor impairment) was “Minimal motor” and the ED50 ([7]; po) was 6 mg/kg and 40 µmol/kg. For the same molecule, the “protective index (TD50/ED50)” value ([7]; rat, in vivo, po) was 19.5, the “Fraction of rats which responded to the treatment” value (from here on “Fraction of rats which responded”) ([7]; dose 2 mg/kg) was 0/8 and the “Fraction of rats which responded” value ([7]; dose 6 mg/kg) was 5/8. The “Fraction of rats which responded” value ([7]; dose 12.5 mg/kg) was 6/8 and the “Fraction of rats which responded” value ([7]; dose 25 mg/kg) was 8/8.
